Results taken from US20250051346A1 (priority 2021, published 2025).

Tests used:
5HT2A sensor [1] = type: cell-based
5HT2A sensor [2] = type: cell-based; remark: listed apart in the source
5-HT2A [3] = target: T1, 5-HT2A (Homo sapiens, UniProt P28223); test: Serotonin 5-HT2A in vitro radioligand binding competition assay; design: purchased Epics Therapeutics S.A. (Belgium), contract assay FAST-0505B; host or cells: membrane extracts; conditions: [3H]-DOI radiotracer, membrane extracts, read-out: 5HT2A R[…] ACTIVITY
Protocol: Serotonin 5-HT2A In Vitro Radioligand Binding Competition Assay. The 5-HT2A radioligand binding competition assay was performed at Epics Therapeutics S.A. (Belgium, FAST-0505B) using conventional methods. Briefly, competition binding was performed in duplicate in the wells of a 96 well plate (Master Block, Greiner, 786201) containing binding buffer (optimized for each receptor), membrane extracts (amount of protein/well optimized for each receptor), radiotracer [^3H]-DOI (final concentration optimized for each receptor) and test compound. Nonspecific binding was determined by co-incubation with 200-fold excess of cold competitor. The samples were incubated in a final volume of 0.1 ml at a temperature and for a duration optimized for each receptor and then filtered over filter plates. Filters were washed six times with 0.5 ml of ice-cold washing buffer (optimized for each receptor) and 50 μl of Microscint 20 (Packard) were added in each well. The plates were incubated 15 min on an orbital shaker and then counted with a TopCount™ for 1 min/well.

5-HT2A [4] = target: T1, 5-HT2A; test: Serotonin 5-HT2A in vitro cellular IPOne agonism assay; type: cell-based; design: host or cells: CHO-K1; conditions: CHO-K1 cells, 60 min
Protocol: (§1) Serotonin 5-HT2A In Vitro Cellular IPOne Agonism Assay. The 5-HT2A IPOne HTRF assay was performed at Epics Therapeutics S.A. (Belgium, FAST-0505I) using conventional methods. Briefly, CHO-K1 cells expressing human recombinant 5-HT2A receptor grown to mid-log phase in culture media without antibiotics were detached with PBS-EDTA, centrifuged, and resuspended in medium without antibiotics buffer. 20,000 cells are distributed in a 96 well plate and incubated overnight at 37° C. with 5% CO2.
For agonist testing, the medium was removed and 20 μl of assay buffer plus 20 μl of test compound or reference agonist were added in each well. The plate was incubated for 60 min. at 37° C. with 5% CO2.
After addition of the lysis buffer containing IP1-d2 and anti-IP1 cryptate detection reagents, plates were incubated 1-hour at room temperature, and fluorescence ratios were measured according to the manufacturer specification, with the HTRF kit.

5-HT2A [5] = target: T1, 5-HT2A; test: Serotonin 5-HT2A in vitro cellular IPOne antagonism assay; type: cell-based; design: host or cells: CHO-K1; conditions: CHO-K1 cells; reference agonist a-Me-5HT
Protocol: as §1, with “Antagonism” for “Agonism”, “FAST-0505I) in antagonism mode” for “FAST-0505I)”
For antagonist testing, a reference agonist a-Me-5HT was added and fluorescence signal monitored for several minutes, followed by addition of 20 μl of assay buffer plus 20 μl of test compound or reference antagonist ketanserin, in each well. The plate was incubated for 60 min. at 37° C. with 5% CO2.
After addition of the lysis buffer containing IP1-d2 and anti-IP1 cryptate detection reagents, plates were incubated 1-hour at room temperature, and fluorescence ratios are measured according to the manufacturer specification, with the HTRF kit.

T1 sequence (P28223 whole entry): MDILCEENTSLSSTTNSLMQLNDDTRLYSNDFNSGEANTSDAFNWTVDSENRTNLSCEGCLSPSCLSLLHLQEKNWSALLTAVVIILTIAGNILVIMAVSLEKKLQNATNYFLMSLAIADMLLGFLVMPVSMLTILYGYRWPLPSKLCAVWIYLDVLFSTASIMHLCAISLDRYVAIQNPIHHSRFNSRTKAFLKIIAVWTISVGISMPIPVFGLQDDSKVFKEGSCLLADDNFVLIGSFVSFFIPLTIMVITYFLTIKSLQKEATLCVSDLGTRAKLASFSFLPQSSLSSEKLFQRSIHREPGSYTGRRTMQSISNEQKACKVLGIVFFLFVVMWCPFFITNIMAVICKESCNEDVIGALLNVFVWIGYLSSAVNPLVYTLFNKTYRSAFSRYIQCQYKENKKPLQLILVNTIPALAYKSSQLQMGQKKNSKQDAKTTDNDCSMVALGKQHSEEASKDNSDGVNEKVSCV

Molecule: CCN(CC)CCc1c[nH]c2cc(F)ccc12 [Compound 6-F-DET, 6-F-DET]
- activation of the 5HT2A sensor assay (5HT2A sensor [1]): do not activate the 5HT2A sensor assay in agonist mode
- competition with 5-HT at 5HT2A in the sensor assay (5HT2A sensor [2]): can compete with 5HT binding to 5HT2A

Molecule: c1ccc2c3c(oc2c1)CCN(C1CCC1)CC3 [Compound 28, 3-cyclobutyl-2,3,4,5-tetrahydro-1H-benzofuro[2,3-d]azepine]
- IC50 (5-HT2A [3]; benzofurans): 1000 to 10000 nM
- EC50 (5-HT2A [4]; benzofurans): > 10000 nM
- IC50 (5-HT2A [5]): > 10000 nM

Molecule: c1ccc(COc2cccc3oc4c(c23)CCNCC4)cc1 [Compound 47, 10-(benzyloxy)-2,3,4,5-tetrahydro-1H-benzofuro[2,3-d]azepine]
- IC50 (5-HT2A [3]; benzofurans): 101 to 1000 nM
- EC50 (5-HT2A [4]; benzofurans): 1000 to 10000 nM
- IC50 (5-HT2A [5]): 101 to 1000 nM

Molecule: CN1CCc2sc3ccccc3c2CC1 [Compound 72, 3-methyl-2,3,4,5-tetrahydro-1H-benzo[4,5]thieno[2,3-d]azepine]
- IC50 (5-HT2A [3]; benzothiophenes): 10 to 100 nM
- EC50 (5-HT2A [4]; benzothiophenes): 101 to 1000 nM
- IC50 (5-HT2A [5]): 10 to 100 nM

Molecule: Fc1ccc2c3c(sc2c1)CCN(C1CCC1)CC3 [Compound 32, 3-cyclobutyl-8-fluoro-2,3,4,5-tetrahydro-1H-benzo[4,5]thieno[2,3-d]azepine]
- IC50 (5-HT2A [3]; benzothiophenes): 10 to 100 nM
- EC50 (5-HT2A [4]; benzothiophenes): > 10000 nM
- IC50 (5-HT2A [5]): 10 to 100 nM

Molecule: CCN(CC)C(=O)[C@@H]1C=C2c3cccc4[nH]cc(c34)C[C@H]2N(C)C1 [LSD]
- activation of the 5HT2A sensor assay (5HT2A sensor [1]): activate the 5HT2A sensor assay in agonist mode

Molecule: COc1ccc2c3c(sc2c1)CCN(C)CC3 [Compound 34, 8-methoxy-3-methyl-2,3,4,5-tetrahydro-1H-benzo[4,5]thieno[2,3-d]azepine]
- IC50 (5-HT2A [3]; benzothiophenes): 1000 to 10000 nM
- EC50 (5-HT2A [4]; benzothiophenes): 1000 to 10000 nM
- IC50 (5-HT2A [5]): 101 to 1000 nM

Molecule: R-MDMA
- activation of the 5HT2A sensor assay (5HT2A sensor [1]): do not activate the 5HT2A sensor assay in agonist mode

Molecule: DOI
- activation of the 5HT2A sensor assay (5HT2A sensor [1]): activate the 5HT2A sensor assay in agonist mode

Molecule: L-MDMA
- activation of the 5HT2A sensor assay (5HT2A sensor [1]): do not activate the 5HT2A sensor assay in agonist mode

Molecule: CCN(CC)C(=O)[C@@H]1C=C2c3cccc4[nH]c(Br)c(c34)C[C@H]2N(C)C1 [BOL148]
- activation of the 5HT2A sensor assay (5HT2A sensor [1]): do not activate the 5HT2A sensor assay in agonist mode
- competition with 5-HT at 5HT2A in the sensor assay (5HT2A sensor [2]): can compete with 5HT binding to 5HT2A

Molecule: CN1CCc2oc3cc(C(F)(F)F)ccc3c2CC1 [Compound 39, 3-methyl-8-(trifluoromethyl)-2,3,4,5-tetrahydro-1H-benzofuro[2,3-d]azepine]
- IC50 (5-HT2A [3]; benzofurans): 1000 to 10000 nM
- EC50 (5-HT2A [4]; benzofurans): > 10000 nM

Molecule: Fc1cccc2oc3c(c12)CCNCC3 [Compound 10, 10-fluoro-2,3,4,5-tetrahydro-1H-benzofuro[2,3-d]azepine]
- IC50 (5-HT2A [3]; benzofurans): 101 to 1000 nM
- EC50 (5-HT2A [4]; benzofurans): 101 to 1000 nM

Molecule: CN1CCc2oc3cc(F)ccc3c2CC1 [Compound 23, 8-fluoro-3-methyl-2,3,4,5-tetrahydro-1H-benzofuro[2,3-d]azepine]
- IC50 (5-HT2A [3]; benzofurans): 101 to 1000 nM
- EC50 (5-HT2A [4]; benzofurans): 101 to 1000 nM
- IC50 (5-HT2A [5]): 101 to 1000 nM

Molecule: Fc1cccc2oc3c(c12)CNCCC3 [Compound 7, 10-fluoro-2,3,4,5-tetrahydro-1H-benzofuro[3,2-c]azepine]
- IC50 (5-HT2A [3]; benzofurans): > 10000 nM
- EC50 (5-HT2A [4]; benzofurans): > 10000 nM

Molecule: COc1ccc2c3c(oc2c1)CCN(C1CCC1)CC3 [Compound 25, 3-cyclobutyl-8-methoxy-2,3,4,5-tetrahydro-1H-benzofuro[2,3-d]azepine]
- IC50 (5-HT2A [3]; benzofurans): > 10000 nM
- EC50 (5-HT2A [4]; benzofurans): > 10000 nM

Molecule: c1ccc2c3c(sc2c1)CCN(C1CCC1)CC3 [Compound 73, 3-cyclobutyl-2,3,4,5-tetrahydro-1H-benzo[4,5]thieno[2,3-d]azepine]
- IC50 (5-HT2A [3]; benzothiophenes): 101 to 1000 nM
- EC50 (5-HT2A [4]; benzothiophenes): > 10000 nM
- IC50 (5-HT2A [5]): 101 to 1000 nM

Molecule: c1ccc(COc2ccc3c4c(sc3c2)CCN(C2CCC2)CC4)cc1 [Compound 78, 8-(benzyloxy)-3-cyclobutyl-2,3,4,5-tetrahydro-1H-benzo[4,5]thieno[2,3-d]azepine]
- IC50 (5-HT2A [3]; benzothiophenes): 1000 to 10000 nM
- EC50 (5-HT2A [4]; benzothiophenes): > 10000 nM

Molecule: COc1cccc2oc3c(c12)CNCCC3 [Compound 18, 10-methoxy-2,3,4,5-tetrahydro-1H-benzofuro[3,2-c]azepine]
- IC50 (5-HT2A [3]; benzofurans): 1000 to 10000 nM
- EC50 (5-HT2A [4]; benzofurans): 1000 to 10000 nM

Molecule: Fc1cccc2oc3c(c12)CN(CC(F)(F)F)CCC3 [Compound 5, 10-fluoro-2-(2,2,2-trifluoroethyl)-2,3,4,5-tetrahydro-1H-benzofuro[3,2-c]azepine]
- IC50 (5-HT2A [3]; benzofurans): > 10000 nM
- EC50 (5-HT2A [4]; benzofurans): > 10000 nM

Molecule: CN1CCCc2oc3cc(OCc4ccccc4)ccc3c2C1 [Compound 54, 8-(benzyloxy)-2-methyl-2,3,4,5-tetrahydro-1H-benzofuro[3,2-c]azepine]
- IC50 (5-HT2A [3]; benzofurans): 101 to 1000 nM
- EC50 (5-HT2A [4]; benzofurans): > 10000 nM

Molecule: CN1CCc2sc3cc(OC(F)(F)F)ccc3c2CC1 [Compound 75, 3-methyl-8-(trifluoromethoxy)-2,3,4,5-tetrahydro-1H-benzo[4,5]thieno[2,3-d]azepine]
- IC50 (5-HT2A [3]; benzothiophenes): 1000 to 10000 nM
- EC50 (5-HT2A [4]; benzothiophenes): > 10000 nM
- IC50 (5-HT2A [5]): 101 to 1000 nM

Molecule: COc1ccc2c3c(sc2c1)CCNCC3 [Compound 35, 8-methoxy-2,3,4,5-tetrahydro-1H-benzo[4,5]thieno[2,3-d]azepine]
- IC50 (5-HT2A [3]; benzothiophenes): 1000 to 10000 nM
- EC50 (5-HT2A [4]; benzothiophenes): 101 to 1000 nM

Molecule: c1ccc2c3c(oc2c1)CCCN(C1CCC1)C3 [Compound 20, 2-cyclobutyl-2,3,4,5-tetrahydro-1H-benzofuro[3,2-c]azepine]
- IC50 (5-HT2A [3]; benzofurans): > 10000 nM
- EC50 (5-HT2A [4]; benzofurans): > 10000 nM

Molecule: COc1cccc2oc3c(c12)CN(C1CCC1)CCC3 [Compound 14, 2-cyclobutyl-10-methoxy-2,3,4,5-tetrahydro-1H-benzofuro[3,2-c]azepine]
- IC50 (5-HT2A [3]; benzofurans): 1000 to 10000 nM
- EC50 (5-HT2A [4]; benzofurans): 1000 to 10000 nM
- IC50 (5-HT2A [5]): 101 to 1000 nM

Molecule: FC(F)(F)CN1CCCc2oc3ccccc3c2C1 [Compound 13, 2-(2,2,2-trifluoroethyl)-2,3,4,5-tetrahydro-1H-benzofuro[3,2-c]azepine]
- IC50 (5-HT2A [3]; benzofurans): > 10000 nM
- EC50 (5-HT2A [4]; benzofurans): > 10000 nM

Molecule: FC(F)(F)Oc1ccc2c3c(oc2c1)CCCNC3 [Compound 49, 8-(trifluoromethoxy)-2,3,4,5-tetrahydro-1H-benzofuro[3,2-c]azepine]
- IC50 (5-HT2A [3]; benzofurans): 1000 to 10000 nM
- EC50 (5-HT2A [4]; benzofurans): 1000 to 10000 nM

Molecule: FC(F)(F)Oc1ccc2c3c(oc2c1)CCNCC3 [Compound 44, 8-(trifluoromethoxy)-2,3,4,5-tetrahydro-1H-benzofuro[2,3-d]azepine]
- IC50 (5-HT2A [3]; benzofurans): 1000 to 10000 nM
- EC50 (5-HT2A [4]; benzofurans): 101 to 1000 nM

Molecule: CN(C)CCc1c[nH]c2ccccc12 [DMT, N,N-dimethyltryptamine]
- activation of the 5HT2A sensor assay (5HT2A sensor [1]): activate the 5HT2A sensor assay in agonist mode

Molecule: CN1CCc2sc3cc(F)ccc3c2CC1 [Compound 33, 8-fluoro-3-methyl-2,3,4,5-tetrahydro-1H-benzo[4,5]thieno[2,3-d]azepine]
- IC50 (5-HT2A [3]; benzothiophenes): 10 to 100 nM
- EC50 (5-HT2A [4]; benzothiophenes): 10 to 100 nM
- IC50 (5-HT2A [5]): 10 to 100 nM

Molecule: CN1CCCc2oc3cc(F)ccc3c2C1 [Compound 9, 8-fluoro-2-methyl-2,3,4,5-tetrahydro-1H-benzofuro[3,2-c]azepine]
- IC50 (5-HT2A [3]; benzofurans): 1000 to 10000 nM
- EC50 (5-HT2A [4]; benzofurans): 1000 to 10000 nM

Molecule: CN1CCc2oc3ccccc3c2CC1 [Compound 30, 3-methyl-2,3,4,5-tetrahydro-1H-benzofuro[2,3-d]azepine]
- IC50 (5-HT2A [3]; benzofurans): 101 to 1000 nM
- EC50 (5-HT2A [4]; benzofurans): > 10000 nM
- IC50 (5-HT2A [5]): 101 to 1000 nM

Molecule: c1ccc(COc2ccc3c4c(oc3c2)CCCNC4)cc1 [Compound 50, 8-(benzyloxy)-2,3,4,5-tetrahydro-1H-benzofuro[3,2-c]azepine]
- IC50 (5-HT2A [3]; benzofurans): 1000 to 10000 nM
- EC50 (5-HT2A [4]; benzofurans): > 10000 nM

Molecule: CN1CCc2oc3cc(OC(F)(F)F)ccc3c2CC1 [Compound 40, 3-methyl-8-(trifluoromethoxy)-2,3,4,5-tetrahydro-1H-benzofuro[2,3-d]azepine]
- IC50 (5-HT2A [3]; benzofurans): 1000 to 10000 nM
- EC50 (5-HT2A [4]; benzofurans): > 10000 nM

Molecule: CN1CCc2sc3cc(OCc4ccccc4)ccc3c2CC1 [Compound 79, 8-(benzyloxy)-3-methyl-2,3,4,5-tetrahydro-1H-benzo[4,5]thieno[2,3-d]azepine]
- IC50 (5-HT2A [3]; benzothiophenes): 101 to 1000 nM
- EC50 (5-HT2A [4]; benzothiophenes): > 10000 nM
